Test [1] deals with male DIO (diet-induced obese) C57BL/6J mice. The experiment in a line: Oral glucose tolerance test (OGTT) in DIO mice. Conditions: 60 min before 2 g/kg oral glucose, DIO C57BL/6J mice; for Reduction in Glucose AUC at 30 mg/kg dose: 30 mg/kg oral. In kind it is in vivo. The procedure: […]. Mice were fasted overnight before use for experiments. A test compound or vehicle (either: 1) 40% PEG 400+10% Cremophore +50% water or 2) 10% dimethyl acetamide +10% ethanol +10% Cremophore +70% water) was given orally 60 min before oral administration of a glucose solution at a dose of 2 g/kg body weight (oral glucose tolerance test; OGTT). […].

The target in test [2] is T1, human glucokinase (GK) (Homo sapiens, UniProt P35557).
T1 construct: Full-length human hepatic GK (untagged) was expressed in BL21 STAR (DE3)pLysS cells; made in house; host or cells: E. coli BL21 STAR (DE3)pLysS
T1 sequence (P35557 1-466 isoform P35557-2): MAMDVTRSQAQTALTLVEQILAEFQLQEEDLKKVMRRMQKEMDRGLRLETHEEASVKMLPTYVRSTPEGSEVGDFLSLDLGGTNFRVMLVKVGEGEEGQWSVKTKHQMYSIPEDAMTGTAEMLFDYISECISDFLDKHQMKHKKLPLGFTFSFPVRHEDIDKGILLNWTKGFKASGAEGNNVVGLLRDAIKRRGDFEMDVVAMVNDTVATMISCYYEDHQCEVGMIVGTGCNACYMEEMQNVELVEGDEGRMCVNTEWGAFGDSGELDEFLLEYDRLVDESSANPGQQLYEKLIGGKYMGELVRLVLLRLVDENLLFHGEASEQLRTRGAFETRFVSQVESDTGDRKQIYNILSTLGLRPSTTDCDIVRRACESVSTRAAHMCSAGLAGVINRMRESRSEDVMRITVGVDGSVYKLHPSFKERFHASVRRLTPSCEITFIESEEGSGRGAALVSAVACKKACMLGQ
The experiment in a line: Glucokinase tandem enzymatic assay. In kind it is biochemical. The conditions noted are these: 12 mM glucose; for EC50: EC50 = concentration to achieve 50% of full activation; for Emax: expressed as % of basal activation, EC50 could not be calculated from the activation curves, read-out: Maximal activation (%) Human Glucokinase @ 12 mM Glucose. The procedure: Enzymatic activity of human glucokinase (GK) was measured by incubating GK, ATP, and glucose for discrete time periods followed by quenching with EDTA (ethylenediamine tetra-acetic acid). Relative amounts of product glucose-6-phosphate (G6P) were measured by then running a detection assay using G6P dehydrogenase and measuring the conversion of ThioNAD (thio-nicotinamide adenine dinucleotide) to ThioNADH (thio-dihydronicotinamide adenine dinucleotide) at a wavelength of 405 nm. This ‘uncoupled’ enzymatic reaction is denoted as the GK ‘tandem’ assay. Activation of GK by compounds can be assessed using this assay. The GK tandem assay protocol described below was followed using a range of activator compound concentrations from 0 to 100 μM at 5 and 12 mM of glucose. […] To initiate the GK reaction, magnesium-ATP (3 mM final concentration) was added to GK in buffer (final buffer conditions of 25 mM HEPES buffer, pH 7.1, containing 1 mM dithiothreitol and 5% DMSO). The total reaction volume was 20 μL. The reaction was allowed to proceed for ten minutes and was then quenched with 5 μL EDTA; 45 mM final). […] Absorbance was read, background glucose-6-phosphate levels were subtracted, after which activation was calculated as a percentage of control activity. Control activity was determined using GK in the presence of vehicle (DMSO), with background glucose-6-phosphate subtracted. Background glucose-6-phosphate was determined by pre-quenching GK with EDTA prior to reaction initiation with ATP.
Full-length human hepatic GK (untagged) was expressed in BL21 STAR (DE3)pLysS cells (Invitrogen) at 25° C. as described by Mookhtiar et al. (1). The protein was purified essentially as described by Lange (2) with a slight modification. […] The resulting pellet was resuspended in buffer, dialyzed, and applied directly to a Q-Sepharose (Sigma) column followed by elution with a linear 100-600 mM KCl gradient. GK containing fractions were pooled, dialyzed overnight vs. 25 mM Hepes pH 7.2/1 mM MgCl2/1 mM EDTA/0.1 M KCl/1 mM DTT, then dialyzed again with same buffer with 10% glycerol added.

The structures appear in SMILES notation.

For the molecule `CCO[P@](C)(=O)Cc1csc(NC(=O)c2cc(Oc3ccc(S(C)(=O)=O)cc3)cc(O[C@@H](C)COC)c2)n1` (single isomer, unassigned) [Example 54], the “Reduction in Glucose AUC at 30 mg/kg dose” value (“Reduction … at 30 mg/kg dose” below) in test [1] was 68-82%. The molecule also yielded an EC50 in test [2] of 49 nM.
`CCOP(=O)(CSc1cnc(NC(=O)[C@H](CC2CCCC2)c2ccc(S(C)(=O)=O)cc2)s1)OCC` [Example 22]: in test [2], the EC50 amounted to 402 nM.
For `CCOP(=O)(CS(=O)(=O)c1cnc(NC(=O)[C@H](CC2CCCC2)c2ccc(S(C)(=O)=O)cc2)s1)OCC` [Example 23], in test [2], the Emax was 150%.
Regarding `CCOP(=O)(Cc1ccc(NC(=O)c2cc(Oc3ccc(S(C)(=O)=O)cc3)cc(O[C@@H](C)COC)c2)nc1)OCC` [Example 29], in test [1], the “Reduction … at 30 mg/kg dose” value is recorded as 66-78%. Further, the EC50 in test [2] was 98 nM.
`CCOP(=O)(Cn1ccc(NC(=O)c2cc(Oc3ccc(S(C)(=O)=O)cc3)cc(O[C@@H](C)COC)c2)n1)OCC` [Example 32]: the “Reduction in Glucose AUC” value in test [1] (30 μmol/kg oral) was found to be 79% @ 30 μmol/kg. The molecule also showed an EC50 in test [2] of 65 nM.
Take `CCOP(=O)(Cn1ccc(NC(=O)c2cc(O[C@@H](C)COC)cc(O[C@@H](C)Cc3ccccc3)c2)n1)OCC` [Example 33]: a half-maximal effect in test [2] (EC50) was put at 26 nM.
For `CCOP(=O)(/C=C/c1cnc(NC(=O)[C@H](CC2CCCC2)c2ccc(S(C)(=O)=O)cc2)s1)OCC` [Example 35], the Emax in test [2] is 133%.
For the molecule `CCOP(=O)(Cc1csc(NC(=O)c2cc(Oc3ccc(S(C)(=O)=O)cc3)cc(O[C@@H](C)COC)c2)n1)OCC` [Example 37], the “Reduction … at 30 mg/kg dose” value in test [1] came out at 88%. The EC50 in test [2] was determined as 34 nM.
Regarding `CCOP(=O)(Cc1cnc(NC(=O)[C@H](CC2CCOCC2)c2ccc(S(=O)(=O)C3CC3)cc2)cn1)OCC` [Example 44], in test [1], the “Reduction … at 30 mg/kg dose” value was 62-80%. In addition, in test [2], the EC50 came out at 564 nM.
`CCOP(=O)(Cc1nc(NC(=O)c2cc(Oc3ccc(S(C)(=O)=O)cc3)cc(O[C@@H](C)COC)c2)sc1Cl)OCC` [Example 50] returned an EC50 in test [2] of 22 nM.
As to `CCOP(=O)(Cc1nc(NC(=O)c2cc(Oc3ccc(S(C)(=O)=O)cc3)cc(O[C@@H](C)COC)c2)sc1Br)OCC` [Example 51], in test [2], the EC50 amounted to 15 nM.
In turn, `COC[C@H](C)Oc1cc(Oc2ccc(S(C)(=O)=O)cc2)cc(C(=O)Nc2nc(CP(C)(=O)O)cs2)c1` [Example 56] returned a 50% effective concentration (EC50) in test [2] of 534 nM.
As to `CCOP(=O)(Cc1csc(NC(=O)c2cc(CN3CCOC3=O)cc(OC)c2)n1)OCC` [Example 65], in test [2], the Emax was 162%.
For the molecule `CCOP(=O)(Cc1csc(NC(=O)Cc2ccc(OC)cc2OC)n1)OCC` [Example 74], the Emax in test [2] is 142%.
With `CCOP(=O)(Cc1csc(NC(=O)c2ccc3c(c2)OCCO3)n1)OCC` [Example 79], the Emax in test [2] was 133%.
On the same count and under the same terms, as for `CCOP(=O)(Cc1csc(NC(=O)c2nn(CC3CC3)c3cc(S(C)(=O)=O)ccc23)n1)OCC` [Example 86], the figure is 141%.
Turning to `CCOP(=O)(Cc1csc(NC(=O)c2cc(OC(C)C)cc(O[C@H]3CCN(C(C)=O)C3)c2)n1)OCC` [Example 112], in test [2], the EC50 came out at 428 nM. In other words, the sub-micromolar range.
The same measure, in the same setting: as for `CCOP(=O)(Cc1csc(NC(=O)c2cc(OC(C)C)cc(O[C@H]3CCN(S(C)(=O)=O)C3)c2)n1)OCC` [Example 113], the figure is 437 nM; as for `CCOP(=O)(Cc1csc(NC(=O)c2cc(OC(C)C)cc(O[C@@H]3CCN(C(=O)OC)C3)c2)n1)OCC` [Example 116], 469 nM.
In the case of `CCOP(=O)(Cc1csc(NC(=O)c2cc(OCC(O)c3ccccc3)cc(OC(C)C)c2)n1)OCC` (centres unmarked) [Example 121], the Emax in test [2] is 126%.
In the case of `CCOP(=O)(Cn1ccc(NC(=O)c2cc(OCC(F)(F)c3ccccc3)cc(OC(C)C)c2)n1)OCC` [Example 122], the EC50 in test [2] was 23 nM.
On to `CCOP(=O)(Cc1csc(NC(=O)c2cc(OCC(F)(F)c3ccccc3)cc(OC(C)C)c2)n1)OCC` [Example 123], for which the Emax in test [2] was 135%.
As to `CCOP(=O)(Cc1csc(NC(=O)c2cc(OCCSC)cc(O[C@@H](C)COC)c2)n1)OCC` [Example 134], the midpoint of the response in test [2], the EC50, lay at 476 nM.
As to `CCOP(=O)(Cc1csc(NC(=O)c2cc(O[C@@H](C)CO)cc(O[C@@H](C)Cc3ccccc3)c2)n1)OCC` [Example 137], in test [2], the EC50 worked out at 21 nM.
The same measure, in the same setting: as for `CCOP(=O)(Cc1csc(NC(=O)c2cc(OCCCS(C)(=O)=O)cc(O[C@@H](C)COC)c2)n1)OCC` [Example 139], the figure is 467 nM.
As for `CCOP(=O)(Cc1csc(NC(=O)c2cc(O[C@@H](C)COC)cc(O[C@@H](C)Cc3ccccc3)c2)n1)OCC` [Example 145], in test [1], the “Reduction … at 30 mg/kg dose” value came to 71%. For the same molecule, it took 24 nM to reach a half-maximal effect in test [2] (EC50).
The like results for `CCOP(=O)(Cc1csc(NC(=O)c2cc(OC(C)C)cc(OC(C)C)c2)n1)OCC` [Example 148] were, in that order, 60% and 178 nM.
As for `COC[C@H](C)Oc1cc(Oc2ccc(S(C)(=O)=O)cc2)cc(C(=O)Nc2nc(CP3(=O)OCCCO3)cs2)c1` [Example 169], the half-maximal effective concentration (EC50) in test [2] was found to be 9 nM.

These data come from patent US7910747B2, “Phosphonate and phosphinate pyrazolylamide glucokinase activators” (Bristol-Myers Squibb Company, priority 2006, dated 2011).
